“And” between values parts separate entries of the source, which are not always exact repeats. Identical values can stand only once. Like-named read-outs stand apart in the source and are kept apart here.
B1: human β-glucuronidase (Homo sapiens) (protein)
chain: LQGGMLYPQESPSRECKELDGLWSFRADFSDNRRRGFEEQWYRRPLWESGPTVDMPVPSSFNDISQDWRLRHFVGWVWYEREVILPERWTQDLRTRVVLRIGSAHSYAIVWVNGVDTLEHEGGYLPFEADISNLVQVGPLPSRLRITIAINNTLTPTTLPPGTIQYLTDTSKYPKGYFVQNTYFDFFNYAGLQRSVLLYTTPTTYIDDITVTTSVEQDSGLVNYQISVKGSNLFKLEVRLLDAENKVVANGTGTQGQLKVPGVSLWWPYLMHERPAYLYSLEVQLTAQTSLGPVSDFYTLPVGIRTVAVTKSQFLINGKPFYFHGVNKHEDADIRGKGFDWPLLVKDFNLLRWLGANAFRTSHYPYAEEVMQMCDRYGIVVIDECPGVGLALPQFFNNVSLHHHMQVMEEVVRRDKNHPAVVMWSVANEPASHLESAGYYLKMVIAHTKSLDPSRPVTFVSNSNYAADKGAPYVDVICLNSYYSWYHDYGHLELIQLQLATQFENWYKKYQKPIIQSEYGAETIAGFHQDPPLMFTEEYQKSLLEQYHLGLDQKRRKYVVGELIWNFADFMTEQSPTRVLGNKKGIFTRQRQPKSAAFLLRERYWKIANETRYPHSVAKSQCLENSLFT
notes: purchased AcroBiosystems BEB-H52H3

Columns and labels:
[1] = molecular target: T1, wild-type human STING LBD (hSTINGwt 138-379) (Homo sapiens, UniProt Q86WV6, H232R); experiment: Isothermal titration calorimetry (ITC), reverse titration; assay type: binding
T1 construct: SUMO (N, cleaved yes); made in house; host or cells: Escherichia coli BL21 (DE3)
Experimental: Escherichia coli BL21 (DE3) (Thermo Scientific EC0114) was transformed with a pET28a plasmid (Genscript) harbouring the codon-optimized sequence of SUMO-hSTINGwt (aa138-379). Transformed BL21 cells were inoculated into LB medium (50 µg ml^−1 kanamycin) and incubated at 180 rpm, 37 °C overnight. The overnight culture was then diluted (1:100 dilution) in 2× YT medium (50 µg ml^−1 kanamycin) and incubated at 180 rpm, 37 °C until optical density at 600 nm (OD600) reached 0.6 (approximately 3 h). The bacterial culture was then cooled to 16 °C, induced with 0.5 mM isopropyl 1-thio-D-galactopyranoside and incubated overnight at 180 rpm, 16 °C. The bacterial cells were pelleted at 4,000g for 30 min, resuspended in 20 ml of lysis buffer (25 mM HEPES pH 7.5, 150 mM NaCl, 20 mM imidazole and 2 mM TCEP supplied with 2 tablets of cOmplete mini EDTA-free protease inhibitors) and disrupted by sonication on ice. The total lysate was clarified by centrifugation at 22,000g for 30 min. The supernatant was collected and filtered through a 0.45-µm filter (Millipore SLHAR33SS). The clarified lysate was then incubated on a roller with 10 ml bed volume of Ni-NTA resin (Thermo Scientific 88223) at 4 °C for 1 h. The Ni-NTA resin was then packed in a column, flushed with 20 ml of wash buffer (25 mM HEPES pH 7.5, 150 mM NaCl and 20 mM imidazole) and eluted with 40 ml of elution buffer (25 mM HEPES pH 8.0, 150 mM NaCl and 250 mM imidazole). The eluted protein was concentrated to approximately 5 ml (Millipore Amicon 10 kDa molecular weight cut-off (MWCO)) and buffer-exchanged into storage buffer (25 mM HEPES pH 7.5 and 150 mM NaCl). TCEP was then added to a final concentration of 2 mM, and 250 units of SUMO protease (Merck SAE0067) were added. The cleavage reaction mixture was left to stand at 4 °C overnight until LC–MS analysis indicated the completion of the cleavage reaction. The cleavage mixture was incubated with 10 ml bed volume of Ni-NTA resin on a roller at 4 °C for 1 h and packed in a disposable column. The flowthrough was collected, and the resin was further flushed with 20 ml of wash buffer. The eluted fractions were combined, concentrated and further purified by size-exclusion chromatography (Cytiva, Superdex 200 Increase 10/300 GL). The purified protein in storage buffer was concentrated to 330 µM (dimer concentration) as determined by bicinchoninic acid (BCA) assay, aliquoted, flash-frozen in liquid nitrogen and stored at −80 °C for future use.
The binding constants of purified dimers were measured by ITC (Malvern Panalytical AutoITC200) in a reverse-titration format. Stock DMSO solutions of each dimer were dissolved in titration buffer (25 mM HEPES pH 7.5 and 150 mM NaCl) to a final concentration of 25 µM and added to the titration cell. The syringe was filled with 250 µM of purified STING in a matching buffer. Titration was performed at 25 °C with the following parameters: 750 rpm stirring, 0.2 µl initial injection followed by 2-µl injections of the […] every 120 s. Titration of STING protein into blank buffer was separately performed and subtracted from the raw data before the analysis. The background-subtracted titration curves were fitted with the built-in Origin software using the standard one-site model.
Extended Data Fig. 2 Isothermal titration calorimetry (ITC) data for binding constant measurements. Purified hSTINGwt138-379 (250 μM of homodimer) was titrated into each dimer (25 μM) dissolved in a matching buffer (25 mM HEPES pH 7.5, 150 mM NaCl) at 25 °C and 750 rpm stirring. Binding constants were reported as the average from duplicate measurements.

[2] = tested on: THP-1 Lucia ISG cells (interferon pathway); experiment: Potency test of purified dimers on THP-1 Lucia ISG reporter cells; assay type: cell-based, human; conditions: for Raw readings: replicates 1-3; for fold induction at 0.00152416 µM: Concentration 1.52416 nM; for fold induction at 0.123457 µM: Concentration 123.457 nM; for fold induction at 0.37037 µM: Concentration 370.37 nM; for fold induction at 1.11111 µM: Concentration 1111.11 nM; for fold induction at 3.33333 µM: Concentration 3333.33 nM; for fold induction at 10 µM: Concentration 10000 nM; for EC50: three biological replicates, mean ± s.d., read-out: EC50 THP-1
Experimental: Cells were pelleted (150g, 10 min) and resuspended in the growth medium (40% conditioned) at a density of 1 × 10^6 cells ml^−1. The cell suspension was dispensed (50 µl each well) into a lidded white 96-well plate (BrandTech 781665). Test compounds or DMSO control were diluted in the growth medium and sterilized by filtering through 0.22-µm polyethersulfone (PES) membranes (Merck SLGP033RS). […] Upon cooling down to room temperature, 50 µl of reconstituted luciferase substrate (InvivoGen QUANTI-Luc) was added to each well via the injector of the plate reader (Molecular Devices SpectraMax i3x), and the luminescence output was recorded (4 s delay, 0.1 s integration). Raw signals were divided by the averaged signal of the DMSO-treated control wells and reported in relative luminescence unit (RLU). The dose–response curve of each replicate was fitted individually using the standard 4PL model (GraphPad Prism). The EC50 value of each compound was averaged from three independent experiments and reported as mean ± s.e.m.

[3] = tested on: THP-1 cells; experiment: Dilution limits of N1/E4 combination to activate THP-1 cells (IFN-β ELISA); conditions: IFN-β secretion, 6 h, single component
[4] = substrate: COc1cc2sc(C(=O)CCC(=O)O)cc2cc1SCO[C@@H]1O[C@H](C(=O)O)[C@@H](O)[C@H](O)[C@H]1O; experiment: Michaelis–Menten kinetics of β-GlcA-N1 cleavage; assay type: biochemical, human; conditions: other: 37 °C, 0.2 M sodium acetate pH 4.5, 67 nM enzyme
Experimental: Human β-glucuronidase (AcroBiosystems BEB-H52H3) was reconstituted in deionized water to a concentration of 1 mg ml^−1. The enzyme stock solution was further diluted in assay buffer (0.2 M acetate pH 4.5) to 10 μg ml^−1 (134 nM). β-GlcA-N1 (50 mM DMSO stock) was twofold serially diluted in assay buffer from 5 to 0.078 mM. The enzyme solution and diluted β-GlcA-N1 were incubated in a transparent 96-well plate and incubated at 37 °C until thermo equilibrium was reached. Then, 100 µl of β-GlcA-N1 at various concentrations was mixed with 100 µl of β-glucuronidase using a multichannel pipette, resulting in the following initial condition: [β-GlcA-N1] = 2.5, 1.25, 0.62, 0.31, 0.16, 0.08 and 0.04 mM; [β-glucuronidase] = 67 nM; 5% DMSO (v/v). The reactions were incubated at 37 °C. At 30-min and 60-min timepoints, a 50-µl portion was withdrawn from each reaction mixture and mixed with 50 µl of quenching buffer (1 M sodium carbonate, 1 mM TCEP). The concentration of liberated N1 was determined by comparing the absorbance of each quenched reaction at 410 nm to a calibration curve of purified N1. Reaction velocities were calculated from the slopes of [N1] versus time plots. The velocity versus [β-GlcA-N1] plot was then fitted with the standard Michaelis–Menten kinetic model (GraphPad Prism).

[5] = 25 °C, average of duplicate measurements, read-out: Kd hSTINGwt (binding constant, ITC)
[6] = Homo sapiens, THP1-Lucia ISG, 24 h, three replicates, read-out: Processed reporter response per replicate (reading relative to DMSO)
[7] = Homo sapiens, THP1-Lucia ISG, 24 h

T1 sequence (Q86WV6 138-379 H232R): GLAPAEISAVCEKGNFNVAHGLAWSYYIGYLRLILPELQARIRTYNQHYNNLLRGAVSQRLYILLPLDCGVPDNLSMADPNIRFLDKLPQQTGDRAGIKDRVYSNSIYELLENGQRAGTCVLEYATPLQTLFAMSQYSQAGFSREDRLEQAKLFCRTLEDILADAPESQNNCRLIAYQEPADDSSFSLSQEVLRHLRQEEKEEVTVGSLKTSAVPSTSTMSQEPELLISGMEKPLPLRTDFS

Molecule	Kd [1, 5] [nM]	Kd ([1]; ITC run _01, read-out: Kd) [nM]	Kd ([1]; ITC run _02, read-out: Kd) [nM]	Raw readings ([2]; Conc 0.508053 nM)	Raw readings ([2]; Conc 1.52416 nM)	Raw readings ([2]; Conc 4.57247 nM)	Raw readings ([2]; Conc 13.7174 nM)	Raw readings ([2]; Conc 41.1523 nM)	Raw readings ([2]; Conc 123.457 nM)	Raw readings ([2]; Conc 370.37 nM)	Raw readings ([2]; Conc 1111.11 nM)	Raw readings ([2]; Conc 3333.33 nM)	Raw readings ([2]; Conc 10000 nM)	fold induction at 0.00152416 µM [2, 6]	fold induction at 0.123457 µM [2, 6]	fold induction at 0.37037 µM [2, 6]	fold induction at 1.11111 µM [2, 6]	fold induction at 3.33333 µM [2, 6]	fold induction at 10 µM [2, 6]	EC50 [2, 7] [nM]	also measured
COc1cc2sc(C(=O)CCC(=O)O)cc2cc1SCSc1cc2cc(C(=O)CCC(=O)O)sc2cc1OC [Compound D5]	32	33	31	1203 RLU and 820 RLU and 682 RLU	644 RLU and 783 RLU and 699 RLU	790 RLU and 1094 RLU and 558 RLU	2256 RLU and 4162 RLU and 2105 RLU	27829 RLU and 66900 RLU and 34361 RLU	93770 RLU and 170286 RLU and 89246 RLU	121713 RLU and 224782 RLU and 129344 RLU	143643 RLU and 288417 RLU and 167064 RLU	169624 RLU and 310357 RLU and 172333 RLU	161133 RLU and 278063 RLU and 147917 RLU	0.881	128	166	196	232	220	112 ± 6	
COc1cc2sc(C(=O)CCC(=O)O)cc2cc1CSCc1cc2cc(C(=O)CCC(=O)O)sc2cc1OC [Compound D7]	12	15	8	1113 RLU and 627 RLU and 644 RLU	1094 RLU and 992 RLU and 1053 RLU	783 RLU and 1083 RLU and 911 RLU	1811 RLU and 3669 RLU and 2075 RLU	26401 RLU and 56159 RLU and 31852 RLU	95964 RLU and 153788 RLU and 83328 RLU	127337 RLU and 208679 RLU and 128863 RLU	148790 RLU and 255878 RLU and 161073 RLU	168239 RLU and 288236 RLU and 165803 RLU	170045 RLU and 271936 RLU and 154582 RLU	1.5	131	174	204	230	233	119 ± 2	fold induction at 0.00457247 µM ([2]; Homo sapiens, THP1-Lucia ISG, 24 h, Concentration 4.57247 nM, three replicates, read-out: Processed reporter response per replicate (reading relative to DMSO)): 1.07; fold induction at 0.0137174 µM ([2]; Homo sapiens, THP1-Lucia ISG, 24 h, Concentration 13.7174 nM, three replicates, read-out: Processed reporter response per replicate (reading relative to DMSO)): 2.48; fold induction at 0.0411523 µM ([2]; Homo sapiens, THP1-Lucia ISG, 24 h, Concentration 41.1523 nM, three replicates, read-out: Processed reporter response per replicate (reading relative to DMSO)): 36.1
COc1cc2sc(C(=O)CCC(=O)O)cc2cc1S [Compound N1]																					concentration up to which no STING activation was shown (alone) [3]: > 64 µM
B1																					Km [4]: 319 µM; kcat [4]: 0.48 s⁻¹; kcat/Km [4]: 1500 M⁻¹ s⁻¹

From paper PMC12669040, “Tumour-specific STING agonist synthesis via a two-component prodrug system” (Nature Chemistry, 2025)
